From US7732604B2, “Triazolopyrazine derivatives” (Pfizer Inc., priority 2006, dated 2010) come the findings set out here.

One may read the Ki as a measure of affinity in units of concentration, obtained from inhibition or displacement.

Where a name gives a salt, the structure may show the parent alone.

This assay deals with T1, HGFR (Homo sapiens, UniProt P08581).
T1 construct: purchased Upstate 14-526
T1 sequence (P08581 974-1390 limits assumed): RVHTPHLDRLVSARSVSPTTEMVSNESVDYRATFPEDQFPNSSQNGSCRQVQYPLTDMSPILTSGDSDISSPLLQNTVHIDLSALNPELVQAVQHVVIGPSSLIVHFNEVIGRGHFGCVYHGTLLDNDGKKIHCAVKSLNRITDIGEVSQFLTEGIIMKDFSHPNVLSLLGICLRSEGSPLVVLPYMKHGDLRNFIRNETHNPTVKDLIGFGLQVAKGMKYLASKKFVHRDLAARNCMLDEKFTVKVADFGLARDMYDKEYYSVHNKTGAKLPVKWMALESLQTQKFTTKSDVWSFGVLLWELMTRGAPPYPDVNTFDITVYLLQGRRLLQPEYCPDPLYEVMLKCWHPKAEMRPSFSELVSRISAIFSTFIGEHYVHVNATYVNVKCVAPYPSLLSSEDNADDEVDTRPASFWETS
Kind of assay: HGFR continuous-coupled spectrophotometric assay (tyrosine kinase activity on Met-2 substrate peptide). The class given is biochemical. Particulars: HGFR 50 nM, Met-2 peptide 0.5 mM, ATP 300 μM, 37° C., absorbance 340 nm; read-out: Ki.
As to `CC1C(=O)N(C)CCN1c1cnc2nnn(Cc3ccc4ncccc4c3)c2n1` (stereo not drawn) [Example 88, 13-dimethyl-4-[1-(quino-lin-6-yl-methyl)-1H-[1,2,3]tri-azolo[4,5-b]pyra-zin-6-yl]pipe-razin-2-one], the Ki amounted to 50 nM.

Consider `FC1(F)CCN([C@@H]2CCN(c3cnc4nnn(Cc5ccc6ncccc6c5)c4n3)C2)CC1` [Example 208, 6-({6-[(3R)-3-(4,4-di-fluoropiperidin-1-yl)pyrro-lidin-1-yl]-1H-[1,2,3]tri-azolo[4,5-b]pyra-zin-1-yl}meth-yl)quinoline. TFA salt], for which the Ki was found to be 156 nM.

`Cc1c(CNc2cnc3nnn(Cc4ccc5ncccc5c4)c3n2)cnn1C` [Example 128, N-[(15-di-methyl-1H-pyra-zol-4-yl)meth-yl]-1-(quino-lin-6-yl-methyl)-1H-[1,2,3]tri-azolo[4,5-b]pyra-zin-6-amine]: the inhibitory constant (Ki) stood at 28 nM.

For the compound `c1cnc2ccc(Cn3nnc4ncc(N5CCCC5)nc43)cc2c1` [Example 164, 6-[(6-pyrrolidin-1-yl-1H-[1,2,3]tri-azolo[4,5-b]pyra-zin-1-yl)meth-yl]quinoline], the inhibition constant Ki was found to be 14 nM.

For the compound `CNCC1(O)CCN(c2cnc3nnn(Cc4ccc5ncccc5c4)c3n2)C1` (stereo not drawn) [Example 155, 3-[(meth-ylamino)meth-yl]-1-[1-(quino-lin-6-yl-methyl)-1H-[1,2,3]tri-azolo[4,5-b]pyra-zin-6-yl]pyrro-lidin-3-ol], the inhibitory constant (Ki) stood at 43 nM.

In the case of `CCOCC(O)CNc1cnc2nnn(Cc3ccc4ncccc4c3)c2n1` (stereo not drawn) [Example 132, 1-ethoxy-3-{[1-(quino-lin-6-yl-methyl)-1H-[123]tri-azolo[45-b]pyra-zin-6-yl]ami-no}propan-2-ol], the Ki stood at 8 nM.

With `CC(C)N(CCO)c1cnc2nnn(Cc3ccc4ncccc4c3)c2n1` [Example 73, 2-{isopropyl[1-(quino-lin-6-yl-methyl)-1H-[1,2,3]tri-azolo[4,5-b]py-razyl-6-yl]ami-no}ethanol], the inhibition constant Ki came to 37 nM.

In the case of `CN(CCS(C)(=O)=O)c1cnc2nnn(Cc3ccc4ncccc4c3)c2n1` [Example 85, N-methyl-N-[2-(meth-ylsulfonyl)ethyl]-1-(quino-lin-6-yl-methyl)-1H-[1,2,3]tri-azolo[4,5-b]pyra-zin-6-amine], the Ki was determined as 12 nM.

Regarding `c1cnc2ccc(Cn3nnc4ncc(-c5cnn([C@@H]6CCOC6)c5)nc43)cc2c1` [Example 61, 6-{6-[(R)-1-(Tetrahydro-furan-3-yl)-1H-pyrazol-4-yl]-[1,2,3]triazolo[4,5-b]pyrazin-1-ylmethyl}-quinoline], the Ki was 10 nM.

As for `CCCN(CCO)c1cnc2nnn(Cc3ccc4ncccc4c3)c2n1` [Example 84, 2-{propyl[1-(quino-lin-6-yl-methyl)-1H-[1,2,3]tri-azolo[4,5-b]pyra-zin-6-yl]amino}ethanol], the Ki came out at 26 nM.

Consider `CN(C)C(=O)CCNc1cnc2nnn(Cc3ccc4ncccc4c3)c2n1` [Example 121, N,N-dimethyl-N~3~-[1-(quino-lin-6-yl-methyl)-1H-[1,2,3]tri-azolo[4,5-b]pyra-zin-6-yl]-beta-alaninamide], for which the Ki turned out to be 22 nM.

Consider `OC1(C(F)(F)F)CCN([C@@H]2CCN(c3cnc4nnn(Cc5ccc6ncccc6c5)c4n3)C2)CC1` [Example 151, 1-{(3R)-1-[1-(quino-lin-6-yl-methyl)-1H-[1,2,3]tri-azolo[4,5-b]pyra-zin-6-yl]pyrro-lidin-3-yl}-4-(tri-fluoromethyl)pipe-ridin-4-ol], for which the Ki is 20 nM.

With `Cc1cn(-c2cnc3nnn(Cc4ccc5ncccc5c4)c3n2)cn1` [Example 16, 6-((6-(4-methyl-1H-imidazol-1-yl)-1H-[1,2,3]triazolo[4,5-b]pyrazin-1-yl)methyl)-quinoline], the inhibitory constant (Ki) turned out to be 3 nM.

Turning to `OC[C@@H]1CC=CC[C@@H]1Nc1cnc2nnn(Cc3ccc4ncccc4c3)c2n1` [Example 119, [(1S,6R)-6-{[1-(quino-lin-6-yl-methyl)-1H-[1,2,3]tri-azolo[4,5-b]pyra-zin-6-yl]ami-no}cyclohex-3-en-1-yl]meth-anol], the inhibition constant Ki came out at 30 nM.

With `CC(c1ccc2c(c1)OCCO2)n1nnc2ncc(-c3cnn(C)c3)nc21` (stereo in doubt) [Example 60, 1-[(S)-1-(2,3-Dihydro-benzo[1,4]dioxin-6-yl)-ethyl]-6-(1-methyl-1H-pyrazol-4-yl)-1H-[1,2,3]triazolo[4,5-b]pyrazine], the Ki was found to be 30 nM.

On to `OCc1ccc(-c2cnc3nnn(Cc4ccc5ncccc5c4)c3n2)cc1` [Example 36, (4-(3-(quinolin-6-ylmethyl)-3H-[1,2,3]triazolo[4,5-b]pyrazin-5-yl)phenyl)methanol], for which the Ki came to 2 nM.

Regarding `O[C@@H]1CCN(c2cnc3nnn(Cc4ccc5ncccc5c4)c3n2)C[C@H]1O` [Example 99, (3R,4R)-1-[1-(quino-lin-6-yl-methyl)-1H-[1,2,3]tri-azolo[4,5-b]pyra-zin-6-yl]pipe-ridine-3,4-diol], the inhibitory constant (Ki) was 21 nM.

Regarding `c1cnc2ccc(Cn3nnc4ncc(NCc5cc(C6CC6)[nH]n5)nc43)cc2c1` [Example 124, N-[(5-cyclo-propyl-1H-pyra-zol-3-yl)meth-yl]-1-(quino-lin-6-yl-methyl)-1H-[1,2,3]tri-azolo[4,5-b]pyra-zin-6-amine], the Ki amounted to 35 nM.

Turning to `COc1cnc2nnn(Cc3ccc4ncccc4c3)c2n1` [Example 193, 6-[(6-methoxy-1H-[1,2,3]tri-azolo[4,5-b]pyra-zin-1-yl)meth-yl]quinoline], the Ki was found to be 108 nM.

With `NC(=O)[C@H]1CCCN1c1cnc2nnn(Cc3ccc4ncccc4c3)c2n1` [Example 186, 1-[1-(quinolin-6-yl-methyl)-1H-[1,2,3]tri-azolo[4,5-b]pyra-zin-6-yl]-D-pro-linamide], the inhibition constant (Ki) turned out to be 564 nM.

For the compound `CC(C)(C)OC(=O)NC[C@H]1CCN(c2cnc3nnn(Cc4ccc5ncccc5c4)c3n2)C1` [Example 133, tert-butyl ({(3R)-1-[1-(quino-lin-6-yl-methyl)-1H-[1,2,3]tri-azolo[4,5-b]pyra-zin-6-yl]pyrro-lidin-3-yl}meth-yl)carbamate], the inhibitory constant (Ki) turned out to be 51 nM.

Turning to `NCCNc1cnc2nnn(Cc3ccc4ncccc4c3)c2n1` [Example 137, N-[1-(quinolin-6-yl-methyl)-1H-[1,2,3]tri-azolo[4,5-b]pyra-zin-6-yl]eth-ane-1,2-diamine], the Ki was found to be 27 nM.

For the compound `c1cnc2ccc(Cn3nnc4ncc(N5CCC5)nc43)cc2c1` [Example 165, 6-[(6-azetidin-1-yl-1H-[1,2,3]tri-azolo[4,5-b]pyra-zin-1-yl)meth-yl]quinoline], the inhibition constant (Ki) stood at 26 nM.

With `OCC[C@H]1CN(c2cnc3nnn(Cc4ccc5ncccc5c4)c3n2)C[C@H]1CO` [Example 110, 2-{(3R,4S)-4-(hydroxy-methyl)-1-[1-(quino-lin-6-yl-methyl)-1H-[1,2,3]tri-azolo[4,5-b]pyra-zin-6-yl]pyrro-lidin-3-yl}eth-anol], the Ki stood at 23 nM.

Regarding `CC(C)(C)OC(=O)NC1CCN(c2cnc3nnn(Cc4ccc5ncccc5c4)c3n2)CC1` [Example 34, tert-butyl 1-(3-(quinolin-6-ylmethyl)-3H-[1,2,3]triazolo[4,5-b]pyrazin-5-yl)piperidin-4-ylcarbamate], the inhibition constant Ki is 33 nM.

On to `CC(C)(CO)Nc1cnc2nnn(Cc3ccc4ncccc4c3)c2n1` [Example 139, 2-methyl-2-{[1-(quino-lin-6-yl-methyl)-1H-[1,2,3]tri-azolo[4,5-b]pyra-zin-6-yl]ami-no}propan-1-ol], for which the inhibition constant Ki is 21 nM.

Consider `CC(C)(C)OC(=O)N1CCN(c2cnc3nnn(Cc4ccc5ncccc5c4)c3n2)CC1` [Example 201, tert-butyl 4-(3-(quino-lin-6-yl-methyl)-3H-[1,2,3]tri-azolo[4,5-b]pyra-zin-5-yl)pipe-razine-1-carboxylate], for which the Ki was 182 nM.

Turning to `OC[C@@H]1CCCN1c1cnc2nnn(Cc3ccc4ncccc4c3)c2n1` [Example 76, {(2S)-1-[1-(quino-lin-6-yl-methyl)-1H-[1,2,3]tri-azolo[4,5-b]pyra-zin-6-yl]pyr-rolidin-2-yl}methanol], the Ki amounted to 65 nM.

For `N#CC1CCN(c2cnc3nnn(Cc4ccc5ncccc5c4)c3n2)CC1` [Example 86, 1-[1-(quinolin-6-yl-methyl)-1H-[1,2,3]tri-azolo[4,5-b]py-razin-6-yl]pipe-ridine-4-carbonitrile], the Ki amounted to 21 nM.

For `CN(C)C(C(N)=O)C1CCN(c2cnc3nnn(Cc4ccc5ncccc5c4)c3n2)CC1` (stereo not drawn) [Example 109, 2-(dimethyl-amino)-2-{1-[1-(quino-lin-6-yl-methyl)-1H-[1,2,3]tri-azolo[4,5-b]pyra-zin-6-yl]pipe-ridin-4-yl}acetamide], the Ki stood at 22 nM.

Turning to `CN(C)[C@H]1CCN(c2cnc3nnn(Cc4ccc5ncccc5c4)c3n2)C1` [Example 29, (S)-N,N-dimethyl-1-(3-(quinolin-6-ylmethyl)-3H-[1,2,3]triazolo[4,5-b]pyrazin-5-yl)pyrrolidin-3-amine], the inhibitory constant (Ki) was found to be 24 nM.

In the case of `FC1CCN(C2CCN(c3cnc4nnn(Cc5ccc6ncccc6c5)c4n3)C2)CC1` (stereo not drawn) [Example 147, 6-({6-[3-(4-fluoro-piperidin-1-yl)pyrro-lidin-1-yl]-1H-[1,2,3]tri-azolo[4,5-b]pyra-zin-1-yl}meth-yl)quinoline], the inhibition constant (Ki) was determined as 34 nM.

Regarding `c1cnc2ccc(Cn3nnc4ncc(NCc5cnn6cccnc56)nc43)cc2c1` [Example 122, N-(pyrazolo[15-a]pyrimi-din-3-yl-methyl)-1-(quino-lin-6-yl-methyl)-1H-[1,2,3]tri-azolo[4,5-b]pyra-zin-6-amine], the inhibition constant (Ki) stood at 25 nM.

Consider `FC(F)CNc1cnc2nnn(Cc3ccc4ncccc4c3)c2n1` [Example 144, N-(2,2-di-fluoroethyl)-1-(quino-lin-6-yl-methyl)-1H-[1,2,3]tri-azolo[4,5-b]pyra-zin-6-amine], for which the Ki came to 3 nM.

Regarding `CCN1CCN(c2cnc3nnn(Cc4ccc5ncccc5c4)c3n2)C(C)C1=O` (stereo not drawn) [Example 82, 1-ethyl-3-meth-yl-4-[1-(quino-lin-6-yl-methyl)-1H-[1,2,3]tri-azolo[4,5-b]pyra-zin-6-yl]pipe-razin-2-one], the Ki was 15 nM.

Take `CN(C)C1CCN(c2cnc3nnn(Cc4ccc5ncccc5c4)c3n2)CC1` [Example 27]: the Ki amounted to 45 nM.
